Results: patent US7858635B2 (priority 2005, dated 2010)
Read-outs that look alike come from different tables or passages of the source.

Experiments:
[1] = biological target: T1, M4 muscarinic receptor (Homo sapiens, UniProt P08173); assay: Functional mobilization of intracellular calcium (FLIPR, Fluo-3), M4-CHO cells; format: cell-based; settings: for Emax: 100% efficacy is the maximum response obtained with the Carbachol control, read-out: M4 Efficacy
T1 construct: expressed in transfected cells; host or cells: CHO cells (M4-CHO, under puromycin, zeocin and blasticidin selection)
T1 sequence (P08173 1-479): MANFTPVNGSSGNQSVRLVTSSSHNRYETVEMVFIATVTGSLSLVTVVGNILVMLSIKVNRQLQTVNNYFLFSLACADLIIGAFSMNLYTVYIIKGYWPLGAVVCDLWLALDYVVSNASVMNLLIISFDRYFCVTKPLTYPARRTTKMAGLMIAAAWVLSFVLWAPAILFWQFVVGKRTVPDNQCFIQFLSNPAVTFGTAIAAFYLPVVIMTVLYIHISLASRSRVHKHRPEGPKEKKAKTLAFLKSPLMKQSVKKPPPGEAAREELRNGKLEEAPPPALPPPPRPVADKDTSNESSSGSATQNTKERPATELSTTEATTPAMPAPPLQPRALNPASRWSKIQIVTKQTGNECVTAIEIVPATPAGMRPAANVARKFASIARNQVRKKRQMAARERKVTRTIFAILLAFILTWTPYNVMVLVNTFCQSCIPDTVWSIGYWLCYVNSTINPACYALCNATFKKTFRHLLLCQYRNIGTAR
Summary of the method: (§1)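 CHO lines stably carrying the muscarinic subtype, dye-loaded with Fluo-3 at 37° C for 60-90 min, receive test compound in 0.5% DMSO. Agonist effects are read directly; antagonist effects against carbachol at EC80 after 15 min pre-incubation.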

[2] = biological target: T2, M1 muscarinic receptor (Homo sapiens, UniProt P11229); assay: Functional mobilization of intracellular calcium (FLIPR, Fluo-3), M1-CHO cells; format: cell-based; settings: for Emax: 100% efficacy is the maximum response obtained with the Carbachol control, read-out: M1 Efficacy
T2 construct: expressed in transfected cells; host or cells: CHO cells (M1-CHO, under zeocin and G418 selection)
T2 sequence (P11229 1-460): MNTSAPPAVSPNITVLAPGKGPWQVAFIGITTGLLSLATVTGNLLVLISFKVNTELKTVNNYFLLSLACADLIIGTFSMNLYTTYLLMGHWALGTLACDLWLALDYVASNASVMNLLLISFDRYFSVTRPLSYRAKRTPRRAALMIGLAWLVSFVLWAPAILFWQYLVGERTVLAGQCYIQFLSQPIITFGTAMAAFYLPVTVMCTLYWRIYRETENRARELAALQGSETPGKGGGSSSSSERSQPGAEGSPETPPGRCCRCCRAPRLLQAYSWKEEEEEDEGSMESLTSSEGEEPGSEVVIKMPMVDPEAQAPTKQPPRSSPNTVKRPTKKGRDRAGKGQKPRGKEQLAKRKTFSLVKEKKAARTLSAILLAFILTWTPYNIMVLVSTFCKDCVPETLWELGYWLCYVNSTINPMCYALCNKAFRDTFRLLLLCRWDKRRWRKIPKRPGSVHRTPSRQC
Summary of the method: as §1

[3] = compound nos. 1-454, M4-CHO cells, calcium mobilization
[4] = compound nos. 1-454, M1-CHO cells, calcium mobilization

Structure (SMILES)	Emax ([1]; compound nos. 1-454) [%]	M4 Activity [1, 3]	Emax ([2]; compound nos. 1-454) [%]	M1 Activity [2, 4]	Emax ([1]; compound nos. 455-509) [%]	M4 Activity ([1]; compounds 455-509)	Emax ([2]; compound nos. 455-509) [%]	M1 Activity ([2]; compounds 455-509)
C#CCCOC(=O)N1C2CCC1CC(N1CCC3(CC1)CN(C(=O)N(C)C)c1ccc(F)cc13)C2 (stereo not drawn) [compound 230]	> 70	++ (activity was measured to be between 0.1 μM and 4.0 μM)	< 65	+ (activity was measured to be greater than or equal to 3.0 μM)				
CCOC(=O)N1CCC(N2CCC3(CC2)CN(C(=O)N2CCCC2)c2ccc(F)cc23)CC1 [compound 22]	< 55	+ (activity was measured to be greater than or equal to 4.0 μM)	65 to 85	+++ (activity was measured to be less than or equal to 0.7 μM)				
CCCOC(=O)N1C2CCC1CC(N1CCC3(CC1)COc1ccc(F)cc13)C2 (stereo not drawn) [compound 283]	55 to 70	+ (activity was measured to be greater than or equal to 4.0 μM)	65 to 85	++ (activity was measured to be between 0.7 μM and 3.0 μM)				
CCOC(=O)N1C2CCC1CC(N1CCC3(CC1)CN(C(=O)O[C@@H]1CCOC1)c1ccc(F)cc13)C2 (stereo partly drawn) [compound 28]	55 to 70	++ (activity was measured to be between 0.1 μM and 4.0 μM)	> 85	+++ (activity was measured to be less than or equal to 0.7 μM)				
CCOC(=O)N1CCC(N2CCC3(CC2)CN(C(C)=O)c2ccc(-c4cccnc4)cc23)CC1 [compound 234]	55 to 70	+++ (activity was measured to be less than or equal to 0.1 μM)	65 to 85	+++ (activity was measured to be less than or equal to 0.7 μM)				
CCOC(=O)N1CCC(N2CCC3(CC2)CN(C(C)=O)c2ccc(-c4ccc(S(C)(=O)=O)cc4)cc23)CC1 [compound 177]	55 to 70	++ (activity was measured to be between 0.1 μM and 4.0 μM)	65 to 85	+++ (activity was measured to be less than or equal to 0.7 μM)				
CC(=O)N[C@H]1CC2(CCN(C3CCC(c4ccccc4)CC3)CC2)c2ccccc21 (stereo partly drawn) [compound 273]	> 70	++ (activity was measured to be between 0.1 μM and 4.0 μM)	> 85	+++ (activity was measured to be less than or equal to 0.7 μM)				
O=C1CC2(CCN(C[C@H]3C[C@H]4C=C[C@H]3C4)CC2)c2ccccc21 [compound 104]	< 55	+ (activity was measured to be greater than or equal to 4.0 μM)	65 to 85	+++ (activity was measured to be less than or equal to 0.7 μM)				
O=C(O[C@H]1CCOC1)N1C2CCC1CC(N1CCC3(CC1)C(=O)Nc1ccccc13)C2 (stereo partly drawn) [compound 301]	< 55	+ (activity was measured to be greater than or equal to 4.0 μM)	< 65	+ (activity was measured to be greater than or equal to 3.0 μM)				
CC(=O)N[C@H]1CC2(CCN(C3CCC(C)CC3)CC2)c2ccccc21 (stereo partly drawn) [compound 280]	55 to 70	+ (activity was measured to be greater than or equal to 4.0 μM)	65 to 85	+ (activity was measured to be greater than or equal to 3.0 μM)				
Fc1ccc2c(c1)C1(CCN(C3CCC4CCC3C4)CC1)CN2 (stereo not drawn) [compound 111]	< 55	++ (activity was measured to be between 0.1 μM and 4.0 μM)	65 to 85	+++ (activity was measured to be less than or equal to 0.7 μM)				
COCCOC(=O)N1CC2(CCN(C3CC4CCC(C3)N4C(=O)O[C@@H]3CCOC3)CC2)c2cc(F)ccc21 (stereo partly drawn) [compound 304]	< 55	+ (activity was measured to be greater than or equal to 4.0 μM)	65 to 85	+++ (activity was measured to be less than or equal to 0.7 μM)				
CC(=O)NC1CC2(CCN(C3CC4CCC(C4)C3)CC2)c2ccccc21 (stereo not drawn) [compound 8]	55 to 70	++ (activity was measured to be between 0.1 μM and 4.0 μM)	< 65	++ (activity was measured to be between 0.7 μM and 3.0 μM)				
Clc1ccc2c(c1)C1(CCO2)CCN(CC2CCOCC2)CC1 [compound 288]	< 55	+ (activity was measured to be greater than or equal to 4.0 μM)	< 65	+ (activity was measured to be greater than or equal to 3.0 μM)				
COCCOC(=O)N1C2CCC1CC(N1CCC3(CCc4ccccc43)CC1)C2 (stereo not drawn) [compound 95]	< 55	++ (activity was measured to be between 0.1 μM and 4.0 μM)	65 to 85	+++ (activity was measured to be less than or equal to 0.7 μM)				
COCCOC(=O)N1CC2(CCN(C3CC4CCC(C3)N4C(=O)OC3CCC3)CC2)c2cc(F)ccc21 (stereo not drawn) [compound 195]	< 55	+ (activity was measured to be greater than or equal to 4.0 μM)	< 65	++ (activity was measured to be between 0.7 μM and 3.0 μM)				
CC(=O)N1CC2(CCN(C3CC4CCC(C3)N4C(=O)O[C@@H]3CCOC3)CC2)c2cc(F)ccc21 (stereo partly drawn) [compound 67]	< 55	++ (activity was measured to be between 0.1 μM and 4.0 μM)	< 65	+++ (activity was measured to be less than or equal to 0.7 μM)				
CC(=O)N1CC2(CCN(C3CC4CCC3C4)CC2)c2cc(C)ccc21 (stereo not drawn) [compound 138]	55 to 70	+ (activity was measured to be greater than or equal to 4.0 μM)	65 to 85	+++ (activity was measured to be less than or equal to 0.7 μM)				
COC(=O)N1C2CCC1CC(N1CCC3(CC1)CN(C(=O)c1cc(C)n(C)n1)c1ccc(F)cc13)C2 (stereo not drawn) [compound 44]	> 70	++ (activity was measured to be between 0.1 μM and 4.0 μM)	65 to 85	+++ (activity was measured to be less than or equal to 0.7 μM)				
CCOC(=O)N1CCC(N2CCC3(CC2)CN(C(C)=O)c2ccc(OC(F)(F)F)cc23)CC1 [compound 225]	< 55	+ (activity was measured to be greater than or equal to 4.0 μM)	< 65	+ (activity was measured to be greater than or equal to 3.0 μM)				
Cc1ncc(N2CCC(N3CCC4(CC3)CN(C(=O)N(C)C)c3ccccc34)CC2)nc1C [compound 487]					25 to 100	++ (activity was measured to be between 2.0 μM and 5.0 μM)	> 100	+++ (activity was measured to be less than or equal to 2.0 μM)
